According to patent US9932339B2, “Helquats with heteroaromatic substituents, preparation thereof, and use thereof as G-quadruplex stabilizers” (USTAV ORGANICKE CHEMIE A BIOCHEMIE AV CR, V.V.I., priority 2014, dated 2018):

Columns and labels:
[1] = system: G-quadruplex oligonucleotide F21T (human telomere); test: FRET melting of G-quadruplex oligonucleotide F21T with ligands; assay type: binding; conditions: for ΔTm (° C.) F21T/ds26: helquat 1 μmol·l^−1, oligonucleotide 0.2 μmol·l^−1, 50-fold excess of double-stranded competitor ds26; for ΔTm (° C.) F21T: helquat 1 μmol·l^−1, oligonucleotide 0.2 μmol·l^−1, without competitor
Excerpt: (§1) To determine the degree of in vitro interactions of helquats with G-quadruplex(es), the oligonucleotides containing the guanine-rich sequences of human telomere (F21T) and NHE III1 promoter region of c-myc oncogene (Fmyc27T) were used. Both oligonucleotides capable of forming an intramolecular G-quadruplex were end-labeled with suitable fluorophores so as to form donor-acceptor FRET pair (5′-FAM and 3′-TAMRA). If the oligonucleotide is folded into the structure of the G-quadruplex, donor is in close proximity of acceptor and radiationless energy transfer to the acceptor occurs. With increasing temperature of the reaction mixture G-quadruplex structure gradually denatures and thus the donor and acceptor (FAM-TAMRA) drift apart. This leads to an increase in fluorescence of donor (FAM) and a decrease in fluorescence of acceptor (TAMRA).
(§2) The result of measurement is the curve of dependence of the intensity of fluorescence of the donor on the temperature. If the G-quadruplex is stabilized by ligand, melting temperature will increase. Melting temperature of G-quadruplex corresponds to the temperature when 50% of the original amount of the folded G-quadruplex is denatured. The measurement outcome is the difference in the melting temperatures (ΔTm) of the G-quadruplex alone and the G-quadruplex stabilized by ligand. In case of Fmyc27T experiments were performed in cacodylate buffer (10 mmol·l^−1, pH=7.2) with KCl (5 mmol·l^−1) and LiCl (95 mmol·l^−1) oligonucleotide and in case of F21T oligonucleotide in cacodylate buffer (10 mmol·l^−1, pH=7.2) with KCl (25 mmol·l^−1) and LiCl (75 mmol·l^−1).
(§3) Both oligonucleotides were denatured for 5 minutes at 95° C. and subsequently allowed to cool to room temperature (3 hours) in the switched-off thermoblock. The final oligonucleotide concentration in the reaction mixture was 0.2 μmol·l^−1. Test helquats were present at concentrations of 1 μmol·l^−1. The total reaction volume was 30 μl. The melting temperature of the oligonucleotides alone (without the presence of helquats) under these conditions was 58.1±0.2° C. for F21T and 64.7±0.4° C. for Fmyc27T. For determining the selectivity of binding of helquats to G-quadruplex in comparison with the double-stranded DNA, 50-fold excess of double-stranded DNA ([…] unlabeled competitor ds26 forming a hairpin) is added to the reaction mixture. After the addition to the reaction mixture ds26 competes with labeled oligonucleotide (Fmyc27T or F21T) for ligand binding. […] Melting temperature of oligonucleotides alone in the presence of the competitor is 59.4±0.5° C. for F21T and 66.3° C.±0.6° C. for Fmyc27T.
(§4) Fluorescence of FAM donor was measured using real-time PCR apparatus Opticon 2 (excitation 470-505 nm and emission 523-543 nm) in temperature increments of 0.5° C. in the range 25 to 95° C. Evaluation of the sigmoid curves of fluorescence intensity dependent on the temperature were performed in GraphPad Prism 5 (GraphPad Software, Inc., USA). Using nonlinear five parametric regression the inflection point on the curve was calculated that corresponds to the melting temperature (Tm) of the G-quadruplex under the given conditions. The values were obtained from at least three independent measurements.

[2] = system: c-Myc27 oligonucleotide G-quadruplex; test: ECD melting curve of c-Myc27 oligonucleotide G-quadruplex with ligands; assay type: binding; conditions: ECD at 263 nm; molar ratio oligonucleotide:ligand 1:1 (5 μmol l^−1 each); Li+-cacodylate buffer
Method: ECD spectra were measured on J-815 spectrometer (Jasco, Japan). Measurement settings (Tab. 3), spectra saving and background subtraction was performed in a Spectra Manager software (Jasco, Japan).
For measurement of the temperature dependencies the cuvettes in the cuvette compartment were placed in the Peltier module, the temperature was controlled by the Spectra Manager software. Melting curves were measured at a wavelength which corresponds to the maximum difference in signal intensity of ECD spectra of oligonucleotide at 25 and 95° C., as shown in FIG. 1. Before and after measuring the melting curves, ECD spectra in extreme temperatures were measured, in order to verify the stability of the studied system.
Processing of the spectra was performed using Spectra Manager (Jasco, Japan). The resulting spectra were obtained from the measured sample spectrum after subtraction of background spectrum, which was spectrum of the solvent. Measuring of sample spectrum and background was conducted under identical conditions. ECD spectra are reported as ellipticity, labeled in the CD figures [mdeg], whose numerical value is associated with dimensionless circular dichroism ΔA (CDv=32980 ΔAv). This CD notations preserves conventions of the international journals in which articles from the field are published.
Stock solution of […] was prepared from c-Myc27 oligonucleotide by dissolution in H2O. The cuvette of 1 mm thickness was filled with 7 μl of oligonucleotide solution and 133 μl of Li^+-cacodylate buffer. Oligonucleotide solution in the cuvette was overlayed with mineral oil to measure temperature dependencies without concentration changes due to evaporation of the solvent at higher temperatures.
From stock solutions of the racemic ligands in DMSO at a concentration of […] solutions were prepared at a concentration of 140 μmol l^−1 by dissolving in H2O. Ligands were added to the solution of oligonucleotide under buffer/mineral oil interface using Hamilton microsyringe (5 μl of solution at a concentration of […]). The resulting molar ratio of oligonucleotide:ligand was 1:1.
The cuvette filled with c-Myc27 oligonucleotide solution in Li^+-cacodylate buffer (cc-Myc27=5 μmol l^−1) was first heated for 5 minutes at 95° C., at this temperature ECD spectrum was measured. Then the sample was cooled to 25° C., allowed to stabilize for 10 min and then ECD spectrum was measured again. Then, the melting curve of ECD oligonucleotide at 263 nm was measured in the temperature range 25-95° C. and for verification of the stability of the sample spectra the spectra were measured again at 95 and 25° C. Under the oil layer ligand solution (cligand=5 μmol l^−1) was added to a solution of oligonucleotide, the sample was thoroughly mixed and ECD spectrum measured at 25° C., the melting curve was obtained and again control spectra were measured at 95 and 25° C.
Decomposition of the G-quadruplex structure in the presence of ligands under influence of temperature was monitored at the wavelength corresponding to the maximum difference in signal intensities of ECD oligonucleotide/ligand at 25 and 95° C., i.e. at 263 nm. Thermal stability of G-quadruplex was monitored in the range of 25 to 95° C. and in a molar ratio of oligonucleotide:ligand=1:1. Example of influence of the studied ligand on the stability of G-quadruplex formed from c-Myc27 oligonucleotide is shown in FIG. 2.
The degree of G-quadruplex stabilization was expressed as change of melting temperature caused by the presence of G-quadruplex ligands (ΔTm): ΔTm=Tm,oligonucleotide+ligand−Tm,oligonucleotide (1), • where Tm,oligonucleotide+ligand is melting temperature of molecular system comprising the oligonucleotide and the ligand and Tm,oligonucleotide, the melting temperature of the oligonucleotide itself. Tab. 4 summarizes the changes in melting temperatures of c-Myc27 oligonucleotide G-quadruplex in the presence of studied ligands.

[3] = system: G-quadruplex oligonucleotide Fmyc27T (NHE III1 promoter region of c-myc oncogene); test: FRET melting of G-quadruplex oligonucleotide Fmyc27T with ligands; assay type: binding; conditions: for ΔTm (° C.) Fmyc27T/ds26 (° C.): helquat 1 μmol·l^−1, oligonucleotide 0.2 μmol·l^−1, 50-fold excess of double-stranded competitor ds26; for ΔTm (° C.) Fmyc27T: helquat 1 μmol·l^−1, oligonucleotide 0.2 μmol·l^−1, without competitor
Excerpt: as §1, §2, §3, §4

G-quadruplex = conditions: background statement; cited from earlier work
[4] = Phase II clinical trials; cited from earlier work

Compound	ΔTm (° C.) F21T/ds26 [1] [°C]	ΔTm (° C.) F21T [1] [°C]	ΔTm (° C.) [2] [°C]	ΔTm (° C.) Fmyc27T/ds26 (° C.) [3] [°C]	ΔTm (° C.) Fmyc27T [3] [°C]	selectivity towards G-quadruplex in presence of DNA duplex (G-quadruplex)	bioavailability [4]
Brc1ccc2[nH]cc(/C=C/c3cc[n+]4c(c3)-c3c(ccc5c3-c3cccc[n+]3CC5)CC4)c2c1.O=S(=O)([O-])C(F)(F)F.O=S(=O)([O-])C(F)(F)F [LSA-C9-30, (E)-2-(2-(5-bromo-1H-indol-3-yl)vinyl)-6,7,10,11-tetrahydrodipyrido[2,1-a:1′,2′-k][2,9]phenanthroline-5,12-diium trifluoromethanesulfonate]	5.5	8.6	6.4	8.2	10.5		
Cc1[nH]c2ccccc2c1/C=C/c1cc[n+]2c(c1)-c1c(ccc3c1-c1cc(/C=C/c4c(C)[nH]c5ccccc45)cc[n+]1CC3)CC2.O=S(=O)([O-])C(F)(F)F.O=S(=O)([O-])C(F)(F)F [PDA-C10-11, 2,15-bis((E)-2-(2-methyl-1H-indol-3-yl)vinyl)-6,7,10,11-tetrahydrodipyrido[2,1-a:1′,2′-k][2,9]phenanthroline-5,12-diium trifluoromethanesulfonate]	12.3	12.9	8.2	13.9	14.9		
C(=C\c1c(-c2ccccc2)[nH]c2ccccc12)/c1cc[n+]2c(c1)-c1c(ccc3c1-c1cc(/C=C/c4c(-c5ccccc5)[nH]c5ccccc45)cc[n+]1CC3)CC2.O=S(=O)([O-])C(F)(F)F.O=S(=O)([O-])C(F)(F)F [PDA-C15-8, 2,15-bis((E)-2-(2-phenyl-1H-indol-3-yl)vinyl)-6,7,10,11-tetrahydrodipyrido[2,1-a:1′,2′-k][2,9]phenanthroline-5,12-diium trifluoromethanesulfonate]	17.3	17.2	10.1	19.9	18.8		
Cc1c(C)c2c(c3c1CC[n+]1ccc(/C=C/c4c[nH]c5ncccc45)cc1-3)-c1cc(/C=C/c3c[nH]c4ncccc34)cc[n+]1CC2 [PDB-C8-14, 2,15-bis((E)-2-(1H-pyrrolo[2,3-b]pyridin-3-yl)vinyl)-8,9-dimethyl-6,7,10,11-tetrahydrodipyrido[2,1-a:1′,2′-k][2,9]phenanthroline-5,12-diium trifluoromethanesulfonate]	5.0	8.4	5.0	9.3	11.5		
Cc1[nH]c2ccccc2c1/C=C/c1cc[n+]2c(c1)-c1c(c(C)c(C)c3c1-c1cc(/C=C/c4c(C)[nH]c5ccccc45)cc[n+]1CC3)CC2 [PDB-C10-11, 8,9-dimethyl-2,15-bis((E)-2-(2-methyl-1H-indol-3-yl)vinyl)-6,7,10,11-tetrahydrodipyrido[2,1-a:1′,2′-k][2,9]phenanthroline-5,12-diium trifluoromethanesulfonate]	10.7	13.0	9.8	13.1	14.2		
C[n+]1ccc(-c2c3nc(c(-c4cc[n+](C)cc4)c4ccc([nH]4)c(-c4cc[n+](C)cc4)c4ccc([nH]4)c(-c4cc[n+](C)cc4)c4nc2C=C4)C=C3)cc1 [TMPyP4]						low selectivity	
CN1CCC[C@H]1CCNC(=O)c1cn2c3c(c(N4CCC(c5cnccn5)C4)c(F)cc3c1=O)Oc1cc3ccccc3cc1-2 (stereo partly drawn) [quarfloxin]							poor bioavailability
